ChEMBL document CHEMBL1201862, “PubChem BioAssay data set” (2004)
The source made the active and inactive calls.

How the values were obtained:
Trypsin = Trypsin (Sus scrofa, UniProt P00761); assay: porcine trypsin inhibitors, dose response, selectivity assay for Rce1 protease inhibitor project, biochemical, quenched peptide fluorescence, cherry-pick (AID 488789)
CAAX prenyl protease 1 = CAAX prenyl protease 1 (Saccharomyces cerevisiae S288c, UniProt P47154); assay: Ste24 protease inhibitors, dose response, biochemical, S. cerevisiae, plate reader, cherry-pick (AID 488815)
CAAX prenyl protease 2 = CAAX prenyl protease 2 (Saccharomyces cerevisiae S288c, UniProt Q03530); format: biochemical
Escherichia coli = assay: microbe, parasite or virus in culture
[1] = cytotoxicity in MIN6 insulinoma cells, dose response, cytotoxicity control, cell-based, mouse insulinoma (AID 2122); format: functional;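 note: confirmatory high-throughput counterscreen run to flag cytotoxic compounds; mouse MIN-6 beta cells carrying an insulin promoter eGFP reporter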
[2] = insulin promoter down-regulators in MIN6 cells, imaging, high-content screening, mouse beta cells (AID 1628); format: functional
[3] = target: T1, Sentrin-specific protease 1 (Homo sapiens, UniProt Q9P0U3); assay: potency of human SENP1 inhibitors, dose response, biochemical, kinetic FRET (AID 651697); format: functional; details: read-out: IC50_Mean
T1 sequence (Q9P0U3 whole entry): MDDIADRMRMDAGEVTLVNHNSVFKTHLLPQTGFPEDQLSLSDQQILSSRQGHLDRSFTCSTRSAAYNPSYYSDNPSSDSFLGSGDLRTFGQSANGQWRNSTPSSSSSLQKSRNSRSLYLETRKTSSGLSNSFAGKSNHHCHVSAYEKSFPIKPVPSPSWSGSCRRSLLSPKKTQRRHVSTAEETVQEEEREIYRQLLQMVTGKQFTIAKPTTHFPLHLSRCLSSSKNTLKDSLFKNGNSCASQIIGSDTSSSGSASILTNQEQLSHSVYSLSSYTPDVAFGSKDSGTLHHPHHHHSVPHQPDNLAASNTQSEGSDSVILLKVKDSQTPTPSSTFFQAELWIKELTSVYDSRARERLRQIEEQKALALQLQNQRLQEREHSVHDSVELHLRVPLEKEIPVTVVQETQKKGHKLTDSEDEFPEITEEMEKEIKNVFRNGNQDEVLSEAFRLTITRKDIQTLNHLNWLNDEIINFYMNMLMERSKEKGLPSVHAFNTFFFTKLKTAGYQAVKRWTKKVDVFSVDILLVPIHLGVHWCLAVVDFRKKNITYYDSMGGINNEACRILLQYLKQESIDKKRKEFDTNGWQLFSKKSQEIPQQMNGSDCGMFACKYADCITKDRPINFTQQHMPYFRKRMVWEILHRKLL

[4] = target: Lysine-specific demethylase 4C (Homo sapiens, UniProt Q9H3R0); assay: GASC-1 (JMJD2C) histone demethylase inhibitors, dose response, biochemical, DELFIA europium, cherry-picked samples (AID 488835); format: functional
[5] = target: Dual specificity tyrosine-phosphorylation-regulated kinase 1A (Rattus norvegicus, UniProt Q63470); format: biochemical, Homo sapiens
[6] = target: T1, Sentrin-specific protease 1; assay: Dose response confirmation of small molecule inhibitors of the catalytic domain of the SUMO protease, SENP1 in a FRET assay.; format: functional; details: read-out: IC50_Mean
[7] = target: Lysine-specific demethylase 4A (Homo sapiens, UniProt O75164); assay: JMJD2A histone demethylase inhibitors, dose response, selectivity assay for GASC-1 inhibitor project, biochemical, DELFIA europium, cherry-picked samples (AID 488840)
[8] = target: T2, Rac GTPase-activating protein 1 (Homo sapiens, UniProt Q9H0H5); assay: MgcRacGAP GTPase-activating activity inhibitors, confirmation, biochemical, ADP Hunter fluorescence, primary and confirmatory (AID 624330); format: functional
T2 sequence (Q9H0H5 whole entry): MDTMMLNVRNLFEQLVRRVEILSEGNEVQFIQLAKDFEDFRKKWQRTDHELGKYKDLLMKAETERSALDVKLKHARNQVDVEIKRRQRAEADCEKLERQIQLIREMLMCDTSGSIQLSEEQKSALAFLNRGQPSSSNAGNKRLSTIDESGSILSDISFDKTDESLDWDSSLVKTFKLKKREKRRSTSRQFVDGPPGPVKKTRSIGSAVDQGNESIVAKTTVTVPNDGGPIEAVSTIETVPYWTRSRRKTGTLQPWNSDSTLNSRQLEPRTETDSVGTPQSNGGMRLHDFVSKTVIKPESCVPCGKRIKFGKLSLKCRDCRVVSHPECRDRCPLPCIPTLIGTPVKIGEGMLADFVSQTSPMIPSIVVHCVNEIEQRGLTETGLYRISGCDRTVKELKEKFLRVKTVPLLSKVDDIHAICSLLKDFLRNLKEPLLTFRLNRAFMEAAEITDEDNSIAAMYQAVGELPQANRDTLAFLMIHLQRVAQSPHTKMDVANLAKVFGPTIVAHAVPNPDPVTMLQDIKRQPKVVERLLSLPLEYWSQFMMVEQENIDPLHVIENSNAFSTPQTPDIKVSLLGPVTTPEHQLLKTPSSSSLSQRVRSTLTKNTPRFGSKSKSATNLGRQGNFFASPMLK

Sequence of Lysine-specific demethylase 4A (O75164 whole entry): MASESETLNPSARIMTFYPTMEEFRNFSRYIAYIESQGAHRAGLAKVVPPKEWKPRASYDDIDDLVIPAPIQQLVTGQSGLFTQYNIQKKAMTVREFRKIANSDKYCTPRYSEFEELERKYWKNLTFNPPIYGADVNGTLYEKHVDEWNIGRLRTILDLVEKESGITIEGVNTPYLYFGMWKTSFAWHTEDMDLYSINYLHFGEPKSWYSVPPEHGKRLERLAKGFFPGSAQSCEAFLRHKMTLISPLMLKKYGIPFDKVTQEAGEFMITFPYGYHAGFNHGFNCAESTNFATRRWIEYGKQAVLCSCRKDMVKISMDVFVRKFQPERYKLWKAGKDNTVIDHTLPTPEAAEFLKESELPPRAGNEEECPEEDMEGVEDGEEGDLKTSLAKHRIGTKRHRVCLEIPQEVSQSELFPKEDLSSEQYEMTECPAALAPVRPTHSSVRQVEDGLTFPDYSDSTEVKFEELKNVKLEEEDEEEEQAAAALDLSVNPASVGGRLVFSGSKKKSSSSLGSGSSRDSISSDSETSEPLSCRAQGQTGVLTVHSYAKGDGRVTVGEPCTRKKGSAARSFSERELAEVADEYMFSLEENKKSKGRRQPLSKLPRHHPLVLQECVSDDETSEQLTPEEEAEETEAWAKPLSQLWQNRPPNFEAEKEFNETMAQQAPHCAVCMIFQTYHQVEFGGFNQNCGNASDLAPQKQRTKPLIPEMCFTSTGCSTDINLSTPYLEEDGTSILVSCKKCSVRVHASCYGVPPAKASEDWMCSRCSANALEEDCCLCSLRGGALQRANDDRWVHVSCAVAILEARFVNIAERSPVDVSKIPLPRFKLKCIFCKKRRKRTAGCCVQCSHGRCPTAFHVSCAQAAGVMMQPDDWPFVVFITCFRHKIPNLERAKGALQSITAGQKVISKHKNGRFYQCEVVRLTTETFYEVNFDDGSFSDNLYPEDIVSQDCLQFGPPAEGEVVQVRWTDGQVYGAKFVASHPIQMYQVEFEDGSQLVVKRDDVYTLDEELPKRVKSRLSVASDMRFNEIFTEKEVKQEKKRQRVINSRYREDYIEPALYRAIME
Sequence of Trypsin (P00761 whole entry): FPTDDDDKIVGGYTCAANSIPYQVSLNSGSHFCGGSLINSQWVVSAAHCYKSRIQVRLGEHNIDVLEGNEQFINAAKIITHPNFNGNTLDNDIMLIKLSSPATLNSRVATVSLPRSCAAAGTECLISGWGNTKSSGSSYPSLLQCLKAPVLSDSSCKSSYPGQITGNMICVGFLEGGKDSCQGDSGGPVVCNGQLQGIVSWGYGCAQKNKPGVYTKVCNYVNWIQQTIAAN
Sequence of CAAX prenyl protease 2 (Q03530 whole entry): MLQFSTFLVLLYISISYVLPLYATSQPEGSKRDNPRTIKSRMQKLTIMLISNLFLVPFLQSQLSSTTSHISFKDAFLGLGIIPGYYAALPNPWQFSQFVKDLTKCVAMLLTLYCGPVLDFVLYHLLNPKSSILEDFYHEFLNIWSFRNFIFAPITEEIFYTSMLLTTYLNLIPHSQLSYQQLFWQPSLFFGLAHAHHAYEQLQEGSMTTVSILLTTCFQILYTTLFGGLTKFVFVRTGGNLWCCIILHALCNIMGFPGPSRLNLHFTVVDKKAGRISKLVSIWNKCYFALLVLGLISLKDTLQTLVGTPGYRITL
Sequence of CAAX prenyl protease 1 (P47154 whole entry): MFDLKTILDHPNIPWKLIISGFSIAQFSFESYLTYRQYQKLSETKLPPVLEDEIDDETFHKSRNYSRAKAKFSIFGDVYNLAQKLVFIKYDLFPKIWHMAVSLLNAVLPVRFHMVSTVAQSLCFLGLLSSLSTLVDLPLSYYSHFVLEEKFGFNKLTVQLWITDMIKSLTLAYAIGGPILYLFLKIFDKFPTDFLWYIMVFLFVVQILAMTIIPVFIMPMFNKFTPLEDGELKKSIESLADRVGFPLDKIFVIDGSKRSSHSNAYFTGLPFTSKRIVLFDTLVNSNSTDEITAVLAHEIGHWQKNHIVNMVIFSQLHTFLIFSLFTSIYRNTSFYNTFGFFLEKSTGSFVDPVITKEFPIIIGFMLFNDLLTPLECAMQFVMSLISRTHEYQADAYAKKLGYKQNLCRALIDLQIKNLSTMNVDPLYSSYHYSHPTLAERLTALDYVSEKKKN
Sequence of Lysine-specific demethylase 4C (Q9H3R0 whole entry): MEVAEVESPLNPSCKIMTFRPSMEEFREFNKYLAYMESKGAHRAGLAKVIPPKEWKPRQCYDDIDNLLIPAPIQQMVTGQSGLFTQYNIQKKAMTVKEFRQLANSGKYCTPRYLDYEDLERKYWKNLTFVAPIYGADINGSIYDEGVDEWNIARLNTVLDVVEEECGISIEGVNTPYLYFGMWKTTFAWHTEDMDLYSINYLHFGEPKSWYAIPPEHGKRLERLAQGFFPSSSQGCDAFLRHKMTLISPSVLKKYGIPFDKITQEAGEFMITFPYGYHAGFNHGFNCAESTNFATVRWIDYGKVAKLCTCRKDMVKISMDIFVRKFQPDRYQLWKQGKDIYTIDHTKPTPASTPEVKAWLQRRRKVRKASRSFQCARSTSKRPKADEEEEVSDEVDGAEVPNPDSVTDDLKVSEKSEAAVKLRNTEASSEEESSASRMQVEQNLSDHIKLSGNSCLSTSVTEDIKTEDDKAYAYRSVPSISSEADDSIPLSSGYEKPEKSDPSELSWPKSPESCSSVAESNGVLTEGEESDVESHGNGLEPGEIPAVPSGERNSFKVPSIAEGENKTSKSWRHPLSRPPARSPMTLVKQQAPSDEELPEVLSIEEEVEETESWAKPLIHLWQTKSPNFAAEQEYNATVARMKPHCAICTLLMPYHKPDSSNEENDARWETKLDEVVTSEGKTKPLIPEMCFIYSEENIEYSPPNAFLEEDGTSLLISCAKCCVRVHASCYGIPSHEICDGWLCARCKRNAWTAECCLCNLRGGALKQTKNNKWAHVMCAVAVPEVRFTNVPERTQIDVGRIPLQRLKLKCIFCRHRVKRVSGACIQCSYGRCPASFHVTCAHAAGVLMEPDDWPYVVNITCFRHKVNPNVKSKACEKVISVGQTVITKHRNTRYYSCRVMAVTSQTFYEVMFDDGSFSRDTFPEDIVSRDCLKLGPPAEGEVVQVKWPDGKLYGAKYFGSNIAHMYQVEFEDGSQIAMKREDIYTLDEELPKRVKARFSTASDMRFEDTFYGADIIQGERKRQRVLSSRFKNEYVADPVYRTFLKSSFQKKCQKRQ

CCCCN1C(=O)/C(=C/Nc2cccnc2Cl)C(=O)N(CCCCl)C1=O
active: AC50 (Trypsin) 47.1 µM | AC50 (CAAX prenyl protease 1) 7.88 µM | AC50 (CAAX prenyl protease 2) 40.4 µM

COc1cc(SC)ccc1C(=O)Nc1cc(C)ccn1
active: AC50 (Escherichia coli) 31.5 µM

N=c1ccn(Cc2ccc(Cl)c(Cl)c2)cc1
active: IC50 [1] 4.07 µM | IC50 [2] 3.32 µM

C[C@@H]1O[C@@H](OC[C@H]2O[C@@H](Oc3cc(O)c4c(=O)cc(-c5ccc(O)c(O)c5)oc4c3)[C@H](O)[C@@H](O)[C@@H]2O)[C@H](O)[C@H](O)[C@H]1O
active: IC50 [3] 14.7 µM | AC50 [4] 2.82 µM | AC50 [5] 15.8 µM | IC50 [6] 6.84 µM | AC50 [7] 2.86 µM | IC50 [8] 42.7 µM
